Measurements as given in patent publication US8163740B2, “6-substituted benzoxazines” (Hoffmann-La Roche Inc., priority 2008, dated 2012).

Columns and labels:
[1] = molecular target: recombinant human 5-HT5A receptor (Homo sapiens, UniProt P47898); assay: [3H]LSD radioligand binding assay; conditions: [3H]LSD (approximately 1 nM); membranes from HEK-EBNA cells transiently expressing 5-HT5A; Ki by Cheng-Prussoff equation; read-out: Ki
Procedure, shortened: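 Membranes from HEK-EBNA cells transiently expressing the receptor, with ~1 nM [3H]LSD in 50 mM Tris, 1 mM EGTA, 10 mM MgCl2, 10 μM pargyline, pH 7.4, SPA bead format. Incubated 120 min RT; nonspecific binding defined with 2 μM methiothepin. 10 concentrations in duplicate; IC50 converted to Ki via Cheng-Prusoff.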

Sequence of recombinant human 5-HT5A receptor (P47898 whole entry): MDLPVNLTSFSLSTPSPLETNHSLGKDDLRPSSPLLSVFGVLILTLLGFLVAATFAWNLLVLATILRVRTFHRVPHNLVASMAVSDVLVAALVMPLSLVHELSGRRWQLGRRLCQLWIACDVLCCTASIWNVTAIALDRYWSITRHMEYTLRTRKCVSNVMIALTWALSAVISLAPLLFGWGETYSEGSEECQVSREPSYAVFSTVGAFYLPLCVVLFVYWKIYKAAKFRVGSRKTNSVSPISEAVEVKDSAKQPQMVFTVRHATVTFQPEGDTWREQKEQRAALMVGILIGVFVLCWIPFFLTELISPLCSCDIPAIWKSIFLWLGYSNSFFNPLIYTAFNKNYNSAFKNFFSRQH

| Compound | Ki [1] [nM] | melting point [°C] |
| --- | --- | --- |
| COc1cccc2c1C(NC1=Nc3ccc(Nc4nnc(C(F)(F)F)o4)cc3CO1)CC2 (racemic) [Example 144, rac-N^2-(7-Methoxy-indan-1-yl)-N^6-(5-trifluoromethyl-[1,3,4]oxadiazol-2-yl)-4H-benzo[d][1,3]oxazine-2,6-diamine] | 8.44 | 173 |
| C(=C\c1ccc2c(c1)COC(N[C@@H]1CCc3ccccc31)=N2)/c1ccccc1 [Example 140, (R)-Indan-1-yl-[6-((E)-styryl)-4H-benzo[d][1,3]oxazin-2-yl]-amine] | 17.6 | 162 |
| COc1cccc2c1C(NC1=Nc3ccc(Nc4nnc(C(F)(F)F)o4)cc3CO1)CO2 (racemic) [Example 145, rac-N^2-(4-Methoxy-2,3-dihydro-benzofuran-3-yl)-N^6-(5-trifluoromethyl-[1,3,4]oxadiazol-2-yl)-4H-benzo[d][1,3]oxazine-2,6-diamine] | 40.2 | 212 |
| C(=C\c1ccc2c(c1)COC(N[C@@H]1CCc3ccccc31)=N2)/c1cccnc1 [Example 143, (R)-Indan-1-yl-[6-((E)-2-pyridin-3-yl-vinyl)-4H-benzo[d][1,3]oxazin-2-yl]-amine] | 7.62 | 132 |
| Cc1nnc(Nc2ccc3c(c2)COC(N[C@@H]2CCc4ccccc42)=N3)o1 [Example 118, N^2—(R)-Indan-1-yl-N^6-(5-methyl-[1,3,4]oxadiazol-2-yl)-4H-benzo[d][1,3]oxazine-2,6-diamine] | 1.4 | 137 |
| N=C(NO)c1ccc2c(c1)COC(N[C@@H]1CCc3ccccc31)=N2 [Example 130, N-Hydroxy-2-((R)-indan-1-ylamino)-4H-benzo[d][1,3]oxazine-6-carboxamidine] | 11.6 | 206 |
| Brc1ccc2c(c1)COC(N[C@@H]1CCc3ccccc31)=N2 [Example 32, (6-Bromo-4H-benzo[d][1,3]oxazin-2-yl)-(R)-indan-1-yl-amine] | 25.2 | 123 |
| FC(F)(F)c1nnc(Nc2ccc3c(c2)COC(N[C@@H]2CCc4ccccc42)=N3)o1 [Example 138, N^2—(R)-Indan-1-yl-N^6-(5-trifluoromethyl-[1,3,4]oxadiazol-2-yl)-4H-benzo[d][1,3]oxazine-2,6-diamine] | 8.76 | 155 |
| COc1cccc2c1C(NC1=Nc3ccc(Nc4nnc(C5CC5)o4)cc3CO1)CC2 (racemic) [Example 111, rac-N^6-(5-Cyclopropyl-[1,3,4]oxadiazol-2-yl)-N^2-(7-methoxy-indan-1-yl)-4H-benzo[d][1,3]oxazine-2,6-diamine] | 1.65 | 204 |
| COc1cccc2c1C(NC1=Nc3ccc(Nc4nnc(C)o4)cc3CO1)CC2 (stereo not drawn) [Example 101, N^2-(7-Methoxy-indan-1-yl)-N^6-(5-methyl-[1,3,4]oxadiazol-2-yl)-4H-benzo[d][1,3]oxazine-2,6-diamine] | 2.41 | 162 |
| COc1cccc2c1C(NC1=Nc3ccc(Br)cc3CO1)CC2 (racemic) [Example 74, rac-(6-Bromo-4H-benzo[d][1,3]oxazin-2-yl)-(7-methoxy-indan-1-yl)-amine] | 13.8 | 151 |
| COc1cccc2c1C(NC1=Nc3ccc(Nc4nnc(C)o4)cc3CO1)CO2 (racemic) [Example 107, rac-N^2-(4-Methoxy-2,3-dihydro-benzofuran-3-yl)-N^6-(5-methyl-[1,3,4]oxadiazol-2-yl)-4H-benzo[d][1,3]oxazine-2,6-diamine] | 10.1 | 191 |
| COc1cccc2c1C(NC1=Nc3ccc(Br)cc3CO1)CO2 (racemic) [Example 54, rac-(6-Bromo-4H-benzo[d][1,3]oxazin-2-yl)-(4-methoxy-2,3-dihydro-benzofuran-3-yl)-amine] | 125 | 132.5 |
| Fc1ccc2c(c1)CCC2NC1=Nc2ccc(Nc3nnc(C(F)(F)F)o3)cc2CO1 (racemic) [Example 148, rac-N^2-(5-Fluoro-indan-1-yl)-N^6-(5-trifluoromethyl-[1,3,4]oxadiazol-2-yl)-4H-benzo[d][1,3]oxazine-2,6-diamine] | 14.1 | 142 |
| Cc1nnc(Nc2ccc3c(c2)COC(NC2CCc4cc(F)ccc42)=N3)o1 (racemic) [Example 106, rac-N^2-(5-Fluoro-indan-1-yl)-N^6-(5-methyl-[1,3,4]oxadiazol-2-yl)-4H-benzo[d][1,3]oxazine-2,6-diamine] | 2.94 | 121 |
